Consider 23 compounds from ChEMBL document CHEMBL3745702, “Synthesis of (3S,4S)-4-aminopyrrolidine-3-ol derivatives and biological evaluation for their BACE1 inhibitory activities” (Bioorg Med Chem Lett, 2016).

SMILES strings stand for the structures.

The target in series [1] is T1, Beta-secretase 1 (Homo sapiens, UniProt P56817). Nature of the series: Inhibition of BACE1 (unknown origin) by FRET assay.
The target in series [2] is T2, Cathepsin D (Homo sapiens, UniProt P07339). Nature of the series: Inhibition of cathepsin D (unknown origin) at 10 uM.
The next series addresses T3, Beta-secretase 2 (Homo sapiens, UniProt Q9Y5Z0).
T3 sequence (Q9Y5Z0 whole entry): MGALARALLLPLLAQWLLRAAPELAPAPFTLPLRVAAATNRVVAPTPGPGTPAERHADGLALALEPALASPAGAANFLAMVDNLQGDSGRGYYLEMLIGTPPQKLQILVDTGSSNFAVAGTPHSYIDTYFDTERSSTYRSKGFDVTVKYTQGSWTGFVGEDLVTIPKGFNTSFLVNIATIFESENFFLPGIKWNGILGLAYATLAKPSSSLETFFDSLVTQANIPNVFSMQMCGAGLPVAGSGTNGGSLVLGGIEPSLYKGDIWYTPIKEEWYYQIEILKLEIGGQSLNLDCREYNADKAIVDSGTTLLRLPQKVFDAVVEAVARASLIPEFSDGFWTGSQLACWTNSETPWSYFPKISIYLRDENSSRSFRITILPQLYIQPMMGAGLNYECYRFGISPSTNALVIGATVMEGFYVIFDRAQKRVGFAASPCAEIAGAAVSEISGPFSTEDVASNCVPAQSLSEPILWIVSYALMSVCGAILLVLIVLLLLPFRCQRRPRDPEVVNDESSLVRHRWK
As to the kind of experiment: Inhibition of BACE2 (unknown origin).

For series [3], the target named is T1, Beta-secretase 1. As to the kind of experiment: Inhibition of BACE1 in […] PC12 cells expressing APP Sweden mutant. The class given is cell-based, PC-12.
The target of series [4] is T2, Cathepsin D. Nature of the series: Inhibition of cathepsin D (unknown origin).
Series [5] in a line: Permeability from apical to basolateral side in MDCK cells at 50 uM. The class given is ADME, cell-based, Canis lupus familiaris. The settings on record: dog.
Series [6] addresses T1, Beta-secretase 1. As to the kind of experiment: Inhibition of BACE1 in […] PC12 cells expressing APP Sweden mutant at 10 uM. Type of series: cell-based. Particulars: PC-12.
Series [7] deals with T1, Beta-secretase 1. Nature of the series: Inhibition of BACE1 (unknown origin).

T1 sequence (P56817 whole entry): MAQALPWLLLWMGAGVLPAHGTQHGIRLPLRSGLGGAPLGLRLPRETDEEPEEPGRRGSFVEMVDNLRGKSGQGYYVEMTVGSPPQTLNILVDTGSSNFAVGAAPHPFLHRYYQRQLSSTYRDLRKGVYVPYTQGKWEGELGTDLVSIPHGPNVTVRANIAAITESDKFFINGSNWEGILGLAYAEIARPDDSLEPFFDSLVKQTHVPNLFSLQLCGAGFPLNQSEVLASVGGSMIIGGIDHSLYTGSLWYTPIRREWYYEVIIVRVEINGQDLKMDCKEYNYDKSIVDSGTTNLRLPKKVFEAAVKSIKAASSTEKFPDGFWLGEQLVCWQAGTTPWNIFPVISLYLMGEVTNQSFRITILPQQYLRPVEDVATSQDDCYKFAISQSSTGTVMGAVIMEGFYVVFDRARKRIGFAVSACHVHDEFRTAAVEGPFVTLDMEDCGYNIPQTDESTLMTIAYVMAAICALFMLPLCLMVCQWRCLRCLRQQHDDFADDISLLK
T2 sequence (P07339 65-162 limits assumed): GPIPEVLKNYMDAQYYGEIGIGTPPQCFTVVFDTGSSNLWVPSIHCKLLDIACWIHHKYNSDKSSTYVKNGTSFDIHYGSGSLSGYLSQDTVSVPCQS
T2 sequence (P07339 169-412 limits assumed): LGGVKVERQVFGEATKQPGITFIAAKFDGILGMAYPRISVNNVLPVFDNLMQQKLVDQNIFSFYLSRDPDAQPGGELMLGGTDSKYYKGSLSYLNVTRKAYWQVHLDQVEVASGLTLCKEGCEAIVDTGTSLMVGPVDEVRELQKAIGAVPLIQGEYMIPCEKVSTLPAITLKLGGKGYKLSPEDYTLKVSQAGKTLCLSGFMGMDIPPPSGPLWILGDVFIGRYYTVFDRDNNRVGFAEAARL

By IC50 is commonly meant the point on the concentration scale where inhibition reaches its midpoint. Read a high IC50 as weaker potency. `CCCS(=O)(=O)N1C[C@H](Nc2nc3cc(F)ccc3[nH]2)[C@@H](OC(=O)c2ccc(C(C)C)cc2)C1`: 670 nM corresponded to half-maximal inhibition against Beta-secretase 1 [1] (IC50).

Regarding `CC(=O)N1C[C@H](Nc2nc3cc(C)ccc3[nH]2)[C@@H](OC(=O)c2ccc(-c3ccccc3)cc2)C1`, 720 nM corresponded to half-maximal inhibition against Beta-secretase 1 [1] (IC50). This IC50 and that of the compound before are within 1.5-fold of each other.

In turn, `CC(C)(C)OC(=O)N1C[C@H](Nc2nc3cc(Cl)ccc3[nH]2)[C@@H](OC(=O)c2ccc(-c3ccccc3)cc2)C1` registered an IC50 against Beta-secretase 1 [1] of 440 nM.

As for `Cc1ccc2[nH]c(N[C@H]3CN(C(=O)OC(C)(C)C)C[C@@H]3OC(=O)c3ccc(-c4ccccc4)cc3)nc2c1`, the IC50 against Beta-secretase 1 [1] came to 210 nM.

On to `CC(C)c1ccc(CO[C@H]2CNC[C@@H]2Nc2nc3cc(F)ccc3[nH]2)cc1`, for which the IC50 at Beta-secretase 1 [1] was greater than 5000 nM.

`COC(=O)CN1C[C@H](Nc2nc3cc(C)ccc3[nH]2)[C@@H](OC(=O)c2ccc(-c3ccccc3)cc2)C1`: the IC50 against Beta-secretase 1 [1] is 570 nM.

Take `CC(C)c1ccc(CO[C@H]2CN(CCO)C[C@@H]2Nc2nc3cc(F)ccc3[nH]2)cc1`: the IC50 against Beta-secretase 1 [1] is greater than 5000 nM.

As to `CN(C)c1ccc(C(=O)O[C@H]2CN(C(=O)OC(C)(C)C)C[C@@H]2Nc2nc3cc(F)ccc3[nH]2)cc1`, 1350 nM corresponded to half-maximal inhibition against Beta-secretase 1 [1] (IC50).

As a reminder, the inhibition is the percentage by which the read-out fell short of the control. For orientation: Papp A→B means how fast a substance crosses the layer from the apical side. Turning to `CC(C)(C)OC(=O)N1C[C@H](Nc2nc3cc(F)ccc3[nH]2)[C@@H](OCc2ccc(-c3ccccc3)cc2)C1`, the inhibition on Cathepsin D [2] was determined as 5.7%. Moreover, the IC50 is 8900 nM at Beta-secretase 2, 1700 nM against Beta-secretase 1 [3], 120 nM against Beta-secretase 1 [1] and greater than 10000 nM against Cathepsin D [4]. In series [5], this compound had a Papp A→B at 50 µM of 13 ×10⁻⁶ cm/s.

Turning to `CC(C)c1ccc(CO[C@H]2CN(S(=O)(=O)c3ccccc3)C[C@@H]2Nc2nc3cc(F)ccc3[nH]2)cc1`, the IC50 at Beta-secretase 1 [1] amounted to 480 nM. That is a sub-micromolar value.

In turn, `CCCS(=O)(=O)N1C[C@H](Nc2nc3cc(F)ccc3[nH]2)[C@@H](OCc2ccc(C(C)C)cc2)C1` showed an IC50 against Beta-secretase 1 [1] of 640 nM.

On to `CC(C)c1ccc(C(=O)O[C@H]2CN(C(=O)OC(C)(C)C)C[C@@H]2Nc2nc3cc(F)ccc3[nH]2)cc1`, for which the inhibition was determined as 1.4% at Cathepsin D [2] and 34% against Beta-secretase 1 [6]. Moreover, the figures for the IC50 against Beta-secretase 2, against Beta-secretase 1 [1] and against Cathepsin D [4] were 4400 nM, 70 nM and greater than 10000 nM, respectively. Further, in series [5], the Papp A→B at 50 µM worked out at 2.3 ×10⁻⁶ cm/s.

The compound `CCCS(=O)(=O)N1C[C@H](Nc2nc3cc(F)ccc3[nH]2)[C@@H](OC(=O)c2ccc(N(C)C)cc2)C1` returned an IC50 on Beta-secretase 1 [1] of 3150 nM.

In the case of `CC(C)c1ccc(CO[C@H]2CN(C(=O)OC(C)(C)C)C[C@@H]2Nc2nc3cc(F)ccc3[nH]2)cc1`, the IC50 against Beta-secretase 1 [1] is 730 nM.

Take `COc1ccc2[nH]c(N[C@H]3CN(C(=O)OC(C)(C)C)C[C@@H]3OC(=O)c3ccc(-c4ccccc4)cc3)nc2c1`: the IC50 against Beta-secretase 1 [1] was 450 nM.

On to `CC(C)(C)OC(=O)N1C[C@H](Nc2nc3cc(Cl)ccc3[nH]2)[C@@H](OC(=O)c2cccc(Oc3ccccc3)c2)C1`, for which the IC50 against Beta-secretase 1 [1] amounted to 360 nM.

The compound `CC(C)c1ccc(CO[C@H]2CN(CC(N)=O)C[C@@H]2Nc2nc3cc(F)ccc3[nH]2)cc1` had an IC50 at Beta-secretase 1 [1] greater than 5000 nM.

On to `Cc1ccc2[nH]c(N[C@H]3CN(C(=O)c4ccccc4)C[C@@H]3OC(=O)c3ccc(-c4ccccc4)cc3)nc2c1`, for which the inhibition amounted to 4.2% against Cathepsin D [2] and 52% against Beta-secretase 1 [6]. The IC50 at Beta-secretase 2 is 5700 nM; against Beta-secretase 1 [1] it was 390 nM; at Cathepsin D [4] it was greater than 10000 nM. Moreover, in series [5], the Papp A→B at 50 µM is 5.2 ×10⁻⁶ cm/s.

In the case of `COc1ccc(N2CCN([C@@H]3CN(C(=O)Nc4cc(Cl)cc(Cl)c4)CC[C@H]3OC(=O)c3ccc(Oc4ccccc4)cc3)CC2)cc1`, half-maximal inhibition against Beta-secretase 1 [7] (IC50) was put at 600 nM.

In the case of `CC(C)c1ccc(C(=O)O[C@H]2CN(S(=O)(=O)c3ccccc3)C[C@@H]2Nc2nc3cc(F)ccc3[nH]2)cc1`, at Beta-secretase 1 [1], the IC50 worked out at 720 nM.

The compound `Cc1ccc2[nH]c(N[C@H]3CNC[C@@H]3OC(=O)c3ccc(-c4ccccc4)cc3)nc2c1` displayed an inhibition at Cathepsin D [2] of 4.5%. The IC50 at Beta-secretase 2 was 4300 nM; on Beta-secretase 1 [3] it was 3200 nM; against Beta-secretase 1 [1] it was 660 nM; on Cathepsin D [4], greater than 10000 nM. For the same compound, in series [5], the Papp A→B at 50 µM turned out to be 4.8 ×10⁻⁶ cm/s.

As to `Cc1ccc2[nH]c(N[C@H]3CN(C(=O)OC(C)(C)C)C[C@@H]3OC(=O)c3cccc(-c4ccc(F)cc4)c3)nc2c1`, the IC50 at Beta-secretase 1 [1] was determined as 190 nM.

As for `CC(C)(C)OC(=O)N1C[C@H](Nc2nc3cc(F)ccc3[nH]2)[C@@H](OC(=O)c2ccc(-c3ccccc3)cc2)C1`, the results for the inhibition on Cathepsin D [2] and against Beta-secretase 1 [6] were 1.1% and 40%, respectively. Further, the IC50 at Beta-secretase 2 is 10100 nM; against Beta-secretase 1 [1], 50 nM; against Cathepsin D [4], greater than 10000 nM. The Papp A→B at 50 µM in series [5] amounted to 1.5 ×10⁻⁶ cm/s.
